Measurements as given in ChEMBL document CHEMBL4825684, “Design, synthesis and biological evaluation of N-anthraniloyl tryptamine derivatives as pleiotropic molecules for the therapy of malignant glioma” (Eur J Med Chem, 2021).
Calls of active or inactive are those of the source. The rule behind the calls is not given here.

What was measured:
[1] = system: U-87 MG; assay: Induction of apoptosis in human U-87 MG cells assessed as late apoptotic cells at 8 uM incubated for 48 hrs by […] double staining based flow cytometry assay (reference value: 0.61%); format: functional, U-87MG ATCC
[2] = Cmax in Sprague-Dawley rat at 60 mg/kg, ip measured up to 24 hrs by LC-MS analysis; format: ADME, organism-based; design: route intraperitoneal, dose 60 mg/kg, time <=24; conditions: in vivo
[3] = Half life in Sprague-Dawley rat at 60 mg/kg, ip measured up to 24 hrs by LC-MS analysis; format: ADME, organism-based; conditions: in vivo
[4] = system: C6; assay: Antitumor activity against rat C6 cells inoculated orthotopic Sprague-Dawley rat model assessed as reduction tumor volume at 50 mg/kg, ip twice a day treated 3 days after tumor cell injection measured for 13 days after tumor implantation; format: functional, organism-based; conditions: time 3.0 day
[5] = system: U-251; assay: Antiproliferative activity against human U-251 cells assessed as decrease in proliferation at 4 uM measured after 24 hrs by EdU assay relative to control; format: functional, cell-based
[6] = system: U-87 MG; assay: Antimigratory activity against human U-87 MG cells assessed as inhibition of migration incubated for 24 hrs by matrigel trans well plate assay; format: functional, cell-based; conditions: U-87MG ATCC
[7] = system: U-251; assay: Induction of apoptosis in human U-251 cells assessed as early apoptotic cells at 2 uM incubated for 48 hrs by […] double staining based flow cytometry assay (reference value: 0.73%); format: functional
[8] = system: U-251; assay: Antiproliferative activity against human U-251 cells assessed as growth inhibition incubated for 72 hrs by CCK-8 assay; format: functional, cell-based; conditions: U-251, 72 h
[9] = system: U-87 MG; assay: Induction of apoptosis in human U-87 MG cells assessed as necrotic cells at 8 uM incubated for 48 hrs by Annexin VIM double staining based flow cytometry assay (reference value: 0.91%); format: functional, U-87MG ATCC
[10] = system: U-251; assay: Induction of apoptosis in human U-251 cells assessed as early apoptotic cells at 8 uM incubated for 48 hrs by […] double staining based flow cytometry assay (Rvb+B32 = 0.73%); format: functional
[11] = system: U-87 MG; assay: Induction of apoptosis in human U-87 MG cells assessed as viable cells at 4 uM incubated for 48 hrs by Annexin VIM double staining based flow cytometry assay (reference value: 97.8%); format: functional, U-87MG ATCC; conditions: read-out: Activity
[12] = system: U-251; assay: Induction of apoptosis in human U-251 cells assessed as necrotic cells at 8 uM incubated for 48 hrs by […] double staining based flow cytometry assay (reference value: 1.32%); format: functional
[13] = target: Tyrosine-protein kinase JAK2 (Homo sapiens) (UniProt O60674); assay: Inhibition JAK2 phosphorylation in human U-251 cells incubated up to 8 hrs by Western blot analysis; format: cell-based; conditions: time hrs <=8
Tyrosine-protein kinase JAK2 (Homo sapiens), sequence (O60674 whole entry): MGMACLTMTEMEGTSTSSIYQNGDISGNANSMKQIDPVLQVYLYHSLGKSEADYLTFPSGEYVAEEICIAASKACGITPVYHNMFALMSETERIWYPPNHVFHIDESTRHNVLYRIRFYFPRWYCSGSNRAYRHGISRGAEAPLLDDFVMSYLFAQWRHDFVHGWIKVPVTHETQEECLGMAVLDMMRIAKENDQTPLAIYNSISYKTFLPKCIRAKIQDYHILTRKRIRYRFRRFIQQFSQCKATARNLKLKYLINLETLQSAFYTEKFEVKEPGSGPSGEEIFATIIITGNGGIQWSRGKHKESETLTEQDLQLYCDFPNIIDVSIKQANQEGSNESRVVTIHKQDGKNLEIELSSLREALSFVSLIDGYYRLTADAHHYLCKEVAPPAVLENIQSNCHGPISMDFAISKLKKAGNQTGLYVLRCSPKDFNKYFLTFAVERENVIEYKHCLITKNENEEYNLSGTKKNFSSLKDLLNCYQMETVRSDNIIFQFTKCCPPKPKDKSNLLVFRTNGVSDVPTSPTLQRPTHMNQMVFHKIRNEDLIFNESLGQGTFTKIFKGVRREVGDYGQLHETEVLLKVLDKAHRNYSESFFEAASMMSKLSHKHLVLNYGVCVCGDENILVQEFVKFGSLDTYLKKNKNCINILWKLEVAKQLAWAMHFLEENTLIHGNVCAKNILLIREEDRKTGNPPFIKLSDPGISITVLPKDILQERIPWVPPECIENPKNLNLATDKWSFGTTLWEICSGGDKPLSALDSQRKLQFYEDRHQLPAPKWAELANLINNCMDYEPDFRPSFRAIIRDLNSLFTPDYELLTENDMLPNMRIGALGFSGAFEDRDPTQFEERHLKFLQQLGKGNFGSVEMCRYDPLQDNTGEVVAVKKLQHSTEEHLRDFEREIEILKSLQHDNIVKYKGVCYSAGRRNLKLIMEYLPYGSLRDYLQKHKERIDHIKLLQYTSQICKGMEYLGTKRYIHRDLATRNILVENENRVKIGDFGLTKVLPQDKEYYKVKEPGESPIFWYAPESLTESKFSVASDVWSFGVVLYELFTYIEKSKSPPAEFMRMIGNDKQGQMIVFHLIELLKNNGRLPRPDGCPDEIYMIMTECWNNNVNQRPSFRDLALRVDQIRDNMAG

[14] = target: Signal transducer and activator of transcription 3 (Homo sapiens) (UniProt P40763); assay: Inhibition STAT3 phosphorylation in human U-251 cells incubated up to 8 hrs by Western blot analysis; format: cell-based; conditions: time hrs <=8
Signal transducer and activator of transcription 3 (Homo sapiens), sequence (P40763 whole entry): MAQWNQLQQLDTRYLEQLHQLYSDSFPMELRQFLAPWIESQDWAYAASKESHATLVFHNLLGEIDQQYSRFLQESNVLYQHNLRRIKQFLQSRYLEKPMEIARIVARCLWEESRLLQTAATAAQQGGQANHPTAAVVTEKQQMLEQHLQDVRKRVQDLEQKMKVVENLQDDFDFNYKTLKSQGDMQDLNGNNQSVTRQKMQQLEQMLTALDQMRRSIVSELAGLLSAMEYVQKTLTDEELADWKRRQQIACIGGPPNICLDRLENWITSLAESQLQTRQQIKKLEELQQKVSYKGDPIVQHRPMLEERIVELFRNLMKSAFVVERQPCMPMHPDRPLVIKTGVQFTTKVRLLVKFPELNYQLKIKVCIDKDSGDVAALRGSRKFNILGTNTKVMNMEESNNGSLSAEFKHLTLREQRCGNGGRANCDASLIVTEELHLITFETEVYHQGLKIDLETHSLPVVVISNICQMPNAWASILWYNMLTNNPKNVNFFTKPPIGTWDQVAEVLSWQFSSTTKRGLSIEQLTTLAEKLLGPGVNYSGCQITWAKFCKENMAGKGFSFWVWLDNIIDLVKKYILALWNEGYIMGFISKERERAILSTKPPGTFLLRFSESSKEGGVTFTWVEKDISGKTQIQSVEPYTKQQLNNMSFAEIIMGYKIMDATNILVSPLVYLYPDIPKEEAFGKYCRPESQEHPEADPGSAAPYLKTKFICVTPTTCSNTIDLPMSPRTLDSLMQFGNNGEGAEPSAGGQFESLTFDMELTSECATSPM

[15] = system: U-251; assay: Induction of apoptosis in human U-251 cells assessed as viable cells at 8 uM incubated for 48 hrs by […] double staining based flow cytometry assay (reference value: 96.6%); format: functional; conditions: read-out: Activity
[16] = system: U-87 MG; assay: Induction of apoptosis in human U-87 MG cells assessed as early apoptotic cells at 8 uM incubated for 48 hrs by […] double staining based flow cytometry assay (reference value: 0.63%); format: functional, U-87MG ATCC
[17] = system: U-87 MG; assay: Induction of apoptosis in human U-87 MG cells assessed as late apoptotic cells at 2 uM incubated for 48 hrs by […] double staining based flow cytometry assay (reference value: 0.61%); format: functional, U-87MG ATCC
[18] = Drug uptake in Sprague-Dawley rat cerebrospinal fluid at 60 mg/kg, ip measured after 2 hrs by LC-MS analysis; format: ADME, organism-based; conditions: read-out: Drug uptake
[19] = system: U-87 MG; assay: Induction of apoptosis in human U-87 MG cells assessed as decrease in Bcl2/Bax ratio at 2 to 4 uM incubated for 48 hrs by Western blot analysis relative to control; format: functional, cell-based; conditions: U-87MG ATCC, dose 2-4 µM
[20] = Acute toxicity in Kunming mouse assessed behavioural changes at 1000 mg/kg, ip measured for 14 days; format: organism-based; conditions: in vivo, 336 h, time 14 day
[21] = system: C6; assay: Antitumor activity against rat C6 cells inoculated orthotopic Sprague-Dawley rat model assessed as decrease in p-STAT3 in tumor tissue at 50 mg/kg, ip twice a day treated 3 days after tumor cell injection measured for 13 days after tumor implantation by Western blot analysis; format: functional, organism-based; conditions: time 3.0 day
[22] = system: U-87 MG; assay: Antiproliferative activity against human U-87 MG cells assessed as colony formation ratio at 4 uM measured after 24 hrs by plate clone formation assay relative to control; format: functional, U-87MG ATCC
[23] = system: C6; assay: Antitumor activity against rat C6 cells inoculated orthotopic Sprague-Dawley rat model assessed as suppression of glioma cells to invade the surrounding brain tissue at 50 mg/kg, ip twice a day administered for 13 days of tumor implantation by hematoxylin-eosin staining analysis; format: functional, organism-based; conditions: time 13.0 day
[24] = system: U-87 MG; assay: Induction of apoptosis in human U-87 MG cells assessed as increase in ROS generation at 1 to 4 uM incubated for 48 hrs by Western blot analysis relative to control; format: functional, cell-based; conditions: U-87MG ATCC, dose 1-4 µM
[25] = AUC (0 to t) in Sprague-Dawley rat at 60 mg/kg, ip measured up to 24 hrs by LC-MS analysis; format: ADME, organism-based; design: route intraperitoneal, dose 60 mg/kg, time <=24; conditions: in vivo
[26] = system: U-87 MG; assay: Anti-invasion activity against human U-87 MG cells assessed as inhibition of invasion incubated for 24 hrs by matrigel trans well plate assay; format: functional, cell-based; conditions: U-87MG ATCC
[27] = system: C6; assay: Anxiolytic activity in rat C6 cells inoculated orthotopic Sprague-Dawley rat model assessed as suppression of MMP9 expression in tumor tissue at 50 mg/kg, ip twice a day administered for 13 days of tumor implantation by immunohistochemical staining analysis; format: functional, organism-based; conditions: time 13.0 day
[28] = system: U-251; assay: Induction of apoptosis in human U-251 cells assessed as late apoptotic cells at 4 uM incubated for 48 hrs by […] double staining based flow cytometry assay (reference value: 1.39%); format: functional
[29] = system: U-87 MG; assay: Antiproliferative activity against human U-87 MG cells assessed as decrease in proliferation at 4 uM measured after 24 hrs by EdU assay relative to control; format: functional, cell-based; conditions: U-87MG ATCC
[30] = system: BV-2; assay: Inhibition of MMP9 production in mouse BV-2 cells co-cultured with rat C6 glioma cells at 2 uM incubated for 24 hrs by Western blot analysis; format: functional, cell-based
[31] = system: U-87 MG; assay: Antiproliferative activity against human U-87 MG cells assessed as growth inhibition incubated for 72 hrs by CCK-8 assay; format: functional, cell-based, U-87MG ATCC
[32] = system: U-251; assay: Induction of apoptosis in human U-251 cells assessed as late apoptotic cells at 2 uM incubated for 48 hrs by […] double staining based flow cytometry assay (reference value: 1.39%); format: functional
[33] = system: U-251; assay: Induction of apoptosis in human U-251 cells assessed as decrease in Bcl2/Bax ratio at 2 to 4 uM incubated for 48 hrs by Western blot analysis relative to control; format: functional, cell-based; conditions: dose 2-4 µM
[34] = system: C6; assay: Antitumor activity against rat C6 cells inoculated orthotopic Sprague-Dawley rat model assessed as tumor necrosis at 50 mg/kg, ip twice a day administered for 13 days of tumor implantation by hematoxylin-eosin staining analysis; format: functional, organism-based; conditions: time 13.0 day
[35] = system: Rattus norvegicus; assay: Anxiolytic activity in rat C6 cells inoculated orthotopic Sprague-Dawley rat model assessed as increase in time spent in central part at 50 mg/kg, ip twice a day administered for 13 days of tumor implantation by open field test relative to control; format: functional, organism-based; conditions: time 13.0 day

## COc1cc(Nc2ccccc2C(=O)NCCc2c[nH]c3ccccc23)cc(OC)c1OC
[1]
  Activity: 7.44%
[2]
  Cmax: 1150 ng/mL
[3]
  half-life: 11.4 h
[4]
  Activity: Active
[5]
  Activity: Active
[6]
  Activity: Active
[7]
  Activity: 4.93%
[8]
  IC50: 1.87 µM
[9]
  Activity: 1.1%
[10]
  Activity: 9.93%
[11]
  viability at 4 µM: 88.5%
[12]
  Activity: 7.24%
[13]
  inhibition: Active
[14]
  inhibition: Active
[15]
  viability at 8 µM: 56.6%
[16]
  Activity: 13.8%
[17]
  Activity: 1.53%
[18]
  concentration at 2 h: 200 ng/mL
[19]
  Activity: Active
[20]
  Activity: Non-Toxic
[21]
  Activity: Active
[22]
  Activity: 0%
[23]
  Activity: Active
[24]
  Activity: Active
[25]
  AUC(0-t) at 24 h: 7330 ng·h/mL
[26]
  Activity: Active
[27]
  Activity: Active
[28]
  Activity: 21.8%
[29]
  Activity: Active
[30]
  inhibition: Active
[31]
  IC50: 4.78 µM
[32]
  Activity: 17.4%
[33]
  Activity: Active
[34]
  Activity: Active
[35]
  Activity: Active
